Test [1] deals with T1, TIP60-KAT5 (Homo sapiens, UniProt Q92993).
T1 construct: encoding amino acid residues 2 to 461 (Uniprot Q92993-2) of human KAT5 isoform; made in house; host or cells: E. coli BL21 DE3
Kind of test: Acetyltransferase biochemical assay (AlphaScreen), KAT5. To be noted: Table 1 (TIP60-KAT5); 0.4 μM Acetyl coenzyme A, histone H4, 10 nM enzyme.

Test [2] deals with T2, HBO-KAT7 (Homo sapiens, UniProt O95251).
T2 construct: encoding amino acid residues 325 to 611 (Uniprot 095251-1) of human KAT7; made in house; host or cells: E. coli BL21 DE3 RIL
Kind of test: Revised Acetyltransferase Biochemical Assay, KAT7. Particulars: Table 9 (HBO-KAT7), 1 μM Acetyl coenzyme A.

Another test concerns the target T3, MOZ-KAT6A (Homo sapiens, UniProt Q92794, A567V).
T3 construct: encoding amino acid residues 507 to 778 (Uniprot Q92794-1) of human KAT6A; made in house; host or cells: E. coli BL21 DE3
Kind of test: Revised Acetyltransferase Biochemical Assay, KAT6A. To be noted: Table 8 (MOZ-KAT6A), 1 μM Acetyl coenzyme A.

For test [3], the target named is T1, TIP60-KAT5. Kind of test: Revised Acetyltransferase Biochemical Assay, KAT5. Particulars: 10 nM KAT5, 1 μM AcCoA, 100 nM histone H4, 90 min.
The target of test [4] is T2, HBO-KAT7. Kind of test: Acetyltransferase biochemical assay (AlphaScreen), KAT7. Particulars: Table 3 (HBO-KAT7); 0.4 μM Acetyl coenzyme A, histone H3.1, 40 nM enzyme. Background: Bead proximity is the source of the signal in Alpha formats.

T2 sequence (O95251 with tags, fused parts or gaps): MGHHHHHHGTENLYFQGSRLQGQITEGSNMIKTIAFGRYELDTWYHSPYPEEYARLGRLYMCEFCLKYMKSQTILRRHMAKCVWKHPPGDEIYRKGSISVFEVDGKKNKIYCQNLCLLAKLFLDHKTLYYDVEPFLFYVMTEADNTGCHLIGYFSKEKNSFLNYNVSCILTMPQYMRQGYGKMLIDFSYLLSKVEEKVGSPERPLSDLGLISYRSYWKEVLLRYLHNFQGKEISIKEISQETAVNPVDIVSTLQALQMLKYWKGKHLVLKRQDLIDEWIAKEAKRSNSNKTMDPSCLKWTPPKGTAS
T1 sequence (Q92993 2-461 isoform Q92993-2): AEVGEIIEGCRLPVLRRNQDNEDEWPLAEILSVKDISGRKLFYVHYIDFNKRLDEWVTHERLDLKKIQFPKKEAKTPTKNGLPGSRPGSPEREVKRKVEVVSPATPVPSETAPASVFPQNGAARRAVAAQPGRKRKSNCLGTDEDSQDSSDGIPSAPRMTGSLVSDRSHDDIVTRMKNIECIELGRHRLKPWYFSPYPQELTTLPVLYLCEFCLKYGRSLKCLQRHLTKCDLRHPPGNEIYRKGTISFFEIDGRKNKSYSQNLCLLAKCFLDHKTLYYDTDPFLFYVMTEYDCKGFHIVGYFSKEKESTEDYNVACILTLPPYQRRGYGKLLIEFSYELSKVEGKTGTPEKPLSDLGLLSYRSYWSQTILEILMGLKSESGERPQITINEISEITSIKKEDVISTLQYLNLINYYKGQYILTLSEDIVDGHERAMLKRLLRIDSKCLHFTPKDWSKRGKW
T3 sequence (Q92794 507-778 A567V limits assumed): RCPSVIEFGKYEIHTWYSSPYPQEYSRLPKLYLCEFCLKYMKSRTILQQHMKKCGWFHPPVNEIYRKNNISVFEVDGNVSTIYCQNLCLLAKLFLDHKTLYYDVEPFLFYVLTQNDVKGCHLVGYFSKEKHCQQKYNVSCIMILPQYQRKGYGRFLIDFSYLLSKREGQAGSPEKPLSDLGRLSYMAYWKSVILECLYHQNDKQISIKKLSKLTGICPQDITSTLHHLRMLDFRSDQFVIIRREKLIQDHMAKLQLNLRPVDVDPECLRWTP

Consider `COc1ccccc1C(O)CNC(=O)C1=Nc2ccc(I)cc2S(=O)(=O)N1` (single isomer, unassigned) [Example 150], for which the IC50 – broadly, the concentration that gives 50% inhibition – turned out to be 3170 nM against TIP60-KAT5 [1], 3590 nM against HBO-KAT7 [2], 1020 nM at MOZ-KAT6A and 1380 nM against TIP60-KAT5 [3].
In the case of `Cc1ncccc1-c1ccccc1CCNC(=O)C1=Nc2ccccc2S(=O)(=O)N1` [Example 6, N-(2-(2-Methylpyridin-3-yl)phenethyl)-2H-benzo[e][1,2,4]thiadiazine-3-carboxamide 1,1-dioxide], the IC50 against TIP60-KAT5 [1] was 90100 nM; on HBO-KAT7 [2], 21300 nM; on MOZ-KAT6A it was 18700 nM; against TIP60-KAT5 [3], > 125000 nM.
`O=C(NCCc1ccccc1C(=O)O)C1=Nc2ccccc2S(=O)(=O)N1` [Example 30, 2-(2-(1,1-Dioxido-2H-benzo[e][1,2,4]thiadiazine-3-carboxamido)ethyl)benzoic Acid] had an IC50 at TIP60-KAT5 [1] of 112000 nM.
In the case of `Cn1cc(-c2ccccc2CCNC(=O)C2=Nc3ccccc3S(=O)(=O)N2)cn1` [Example 40, N-(2-(1-methyl-1H-pyrazol-4-yl)phenethyl)-2H-benzo[e][1,2,4]thiadiazine-3-carboxamide 1,1-dioxide], the values for the IC50 at TIP60-KAT5 [1] and on HBO-KAT7 [4] were > 125000 nM and 9450 nM, respectively.
Take `C#Cc1ccc2c(c1)S(=O)(=O)NC(C(=O)NCC(c1ccccc1)c1ncco1)=N2` (stereo not shown) [Example 42, 7-ethynyl-N-(2-(oxazol-2-yl)-2-phenylethyl)-2H-benzo[e][1,2,4]thiadiazine-3-carboxamide 1,1-dioxide]: the values for the half-inhibitory concentration (IC50) against TIP60-KAT5 [1] and against HBO-KAT7 [4] were 642 nM and 255 nM, respectively.
With `O=C(NCC(C(=O)N1CCCC1)c1ccccc1)C1=Nc2ccccc2S(=O)(=O)N1` (stereo not shown) [Example 44, N-(3-oxo-2-phenyl-3-(pyrrolidin-1-yl)propyl)-2H-benzo[e][1,2,4]thiadiazine-3-carboxamide 1,1-dioxide], at TIP60-KAT5 [1], the IC50 was > 125000 nM.
In the case of `CC(C)OC(=O)NC(CNC(=O)C1=Nc2ccccc2S(=O)(=O)N1)c1ccccc1` (stereo not shown) [Example 50, Isopropyl (2-(1,1-dioxido-2H-benzo[e][1,2,4]thiadiazine-3-carboxamido)-1-phenylethyl) carbamate], the 50% inhibitory concentration (IC50) is 49100 nM against HBO-KAT7 [2], 6190 nM against MOZ-KAT6A and > 125000 nM on TIP60-KAT5 [3].
Regarding `COC(CNC(=O)C1=Nc2ccc(I)cc2S(=O)(=O)N1)c1ccccc1OC(F)F` (stereo not shown) [Example 58, N-(2-(2-(difluoromethoxy)phenyl)-2-methoxyethyl)-7-iodo-2H-benzo[e][1,2,4]thiadiazine-3-carboxamide 1,1-dioxide], the IC50 against TIP60-KAT5 [1] is 2580 nM; at HBO-KAT7 [4] it was 1590 nM.
`O=C(NCCc1ccccc1C(=O)O)C1=Nc2ccc(I)cc2S(=O)(=O)N1` [Example 155, 2-(2-(7-Iodo-1,1-dioxido-2H-benzo[e][1,2,4]thiadiazine-3-carboxamido)ethyl)benzoic Acid]: the 50% inhibitory concentration (IC50) was 9520 nM on HBO-KAT7 [2], 595 nM on MOZ-KAT6A and 2680 nM on TIP60-KAT5 [3].
For `O=C(NCC(c1ccccc1)c1nnc(C(F)F)o1)C1=Nc2ccc(I)cc2S(=O)(=O)N1` (stereo not shown) [Example 185], the IC50 is 264 nM at HBO-KAT7 [2], 42 nM on MOZ-KAT6A and 994 nM against TIP60-KAT5 [3].
For the compound `O=C(NCCc1ccccc1-n1ccnc1)C1=Nc2ccc(I)cc2S(=O)(=O)N1` [Example 192], the figures for the IC50 at HBO-KAT7 [2], on MOZ-KAT6A and against TIP60-KAT5 [3] were 2300 nM, 613 nM and 11100 nM, respectively.
Regarding `COCc1ccccc1C(CNC(=O)C1=Nc2ccccc2S(=O)(=O)N1)c1ncco1` (stereo not shown) [Example 194], the IC50 on HBO-KAT7 [2] was 26000 nM; against MOZ-KAT6A, 5560 nM; against TIP60-KAT5 [3], ≥ 125000 nM.
Consider `O=C(NCCc1ccccc1-c1n[nH]c(=O)o1)C1=Nc2ccccc2S(=O)(=O)N1` [Example 195], for which the IC50 on HBO-KAT7 [2] worked out at 2210 nM; at MOZ-KAT6A, 209 nM; on TIP60-KAT5 [3], 1850 nM.
In the case of `O=C(NCC(O)C1CCCCC1)C1=Nc2ccc(Cl)cc2S(=O)(=O)N1` (stereo not shown) [Example 200], the 50% inhibitory concentration (IC50) is > 125000 nM against HBO-KAT7 [2], 9800 nM against MOZ-KAT6A and > 125000 nM against TIP60-KAT5 [3].
On to `O=C(NCC1(c2ccccc2)CCCC1)C1=Nc2ccccc2S(=O)(=O)N1` [Example 205], for which the results for the concentration for half-maximal inhibition (IC50) against HBO-KAT7 [2], against MOZ-KAT6A and on TIP60-KAT5 [3] were 2730 nM, 970 nM and 30000 nM, respectively.
As to `CC(N)c1ccc2c(c1)S(=O)(=O)NC(C(=O)NCC(c1ccccc1)c1ncco1)=N2` (stereo not shown) [Example 208, 7-(1-Aminoethyl)-N-(2-(oxazol-2-yl)-2-phenylethyl)-2H-benzo[e][1,2,4]thiadiazine-3-carboxamide 1,1-dioxide], the figures for the concentration for half-maximal inhibition (IC50) at HBO-KAT7 [2], on MOZ-KAT6A and at TIP60-KAT5 [3] were 4510 nM, 1600 nM and 13300 nM, respectively.
As for `CNC(C)c1ccc2c(c1)S(=O)(=O)NC(C(=O)NCC(c1ccccc1)c1ncco1)=N2` (stereo not shown) [Example 209, 7-(1-(Methylamino)ethyl)-N-(2-(oxazol-2-yl)-2-phenylethyl)-2H-benzo[e][1,2,4]thiadiazine-3-carboxamide 1,1-dioxide], the IC50 against HBO-KAT7 [2] turned out to be 1670 nM; on MOZ-KAT6A, 378 nM; against TIP60-KAT5 [3], 8450 nM.
On to `CC(NS(C)(=O)=O)c1ccc2c(c1)S(=O)(=O)NC(C(=O)NCC(c1ccccc1)c1ncco1)=N2` (stereo not shown) [Example 210, 7-(1-(Methylsulfonamido)ethyl)-N-(2-(oxazol-2-yl)-2-phenylethyl)-2H-benzo[e][1,2,4]thiadiazine-3-carboxamide 1,1-dioxide], for which the IC50 at HBO-KAT7 [2] came out at 1120 nM; at MOZ-KAT6A, 303 nM; at TIP60-KAT5 [3], 10900 nM.
Turning to `CC(=O)NC(C)c1ccc2c(c1)S(=O)(=O)NC(C(=O)NCC(c1ccccc1)c1ncco1)=N2` (stereo not shown) [Example 211, 7-(1-Acetamidoethyl)-N-(2-(oxazol-2-yl)-2-phenylethyl)-2H-benzo[e][1,2,4]thiadiazine-3-carboxamide 1,1-dioxide], the half-maximal inhibitory concentration (IC50) worked out at 6070 nM on HBO-KAT7 [2], 2180 nM against MOZ-KAT6A and 24700 nM against TIP60-KAT5 [3].
As for `COc1ccc2c(c1)S(=O)(=O)NC(C(=O)NCC(c1cccc(Cl)c1)c1ncco1)=N2` (stereo not shown) [Example 223, N-(2-(3-Chlorophenyl)-2-(oxazol-2-yl)ethyl)-7-methoxy-2H-benzo[e][1,2,4]thiadiazine-3-carboxamide 1,1-dioxide], the half-maximal inhibitory concentration (IC50) on HBO-KAT7 [2] worked out at 1010 nM; against MOZ-KAT6A, 216 nM; on TIP60-KAT5 [3], 3320 nM.
For the compound `O=C(NCC(c1cccc(Cl)c1)c1ncco1)C1=Nc2ccc(O)cc2S(=O)(=O)N1` (stereo not shown) [Example 224, N-(2-(3-chlorophenyl)-2-(oxazol-2-yl)ethyl)-7-hydroxy-2H-benzo[e][1,2,4]thiadiazine-3-carboxamide 1,1-dioxide], the IC50 was determined as 204 nM against HBO-KAT7 [2], 165 nM at MOZ-KAT6A and 9010 nM on TIP60-KAT5 [3].
The corresponding values for `NC(=O)c1ccccc1CCNC(=O)C1=Nc2ccc(I)cc2S(=O)(=O)N1` [Example 230, N-(2-Carbamoylphenethyl)-7-iodo-2H-benzo[e][1,2,4]thiadiazine-3-carboxamide 1,1-dioxide] are 2300 nM, 761 nM and 4900 nM.
Taken in the same sequence, the figures for `O=C(NCC1(c2ncco2)CCCC1)C1=Nc2ccccc2S(=O)(=O)N1` [Example 242, N-((1-(oxazol-2-yl)cyclopentyl)methyl)-2H-benzo[e][1,2,4]thiadiazine-3-carboxamide 1,1-dioxide] were 33000 nM, 2770 nM and 123000 nM.

(Values after patent US20210380548A1, “Fused [1,2,4]Thiadiazine Derivatives Which Act as KAT Inhibitors of the MYST Family” (CTxT Pty Limited, priority 2017, published 2021).)
